Source: patent US8637525B2, “Compounds for the reduction of beta-amyloid production” (Bristol-Myers Squibb Company, priority 2009, dated 2014)
Counter-ions that a name gives are not always drawn. Like-named read-outs stand apart in the source and are kept apart here.

Test system: Aβ1-42 production
Assay: Cellular assay for inhibition of Aβ1-42 production (H4 APP751 SWE clone 8.20)
Assay type: cell-based
Settings: H4 APP751 SWE clone 8.20 cells, 19 h incubation
In short: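 H4 cells stably expressing Swedish-mutant APP751 incubated with compound 19 h at 37 °C, 5% CO2. Secreted Aβ42 detected by HTRF with Aβ42 neoepitope antibody 565 (0.8 ng/well) and N-terminal 26D6 (75 ng/well), overnight at 4 °C. IC50 obtained by curve fitting.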

[1] = 19 h, class symbols, read-out: Activity Rating (Aβ42 cellular IC50)
[2] = class symbols, read-out: Activity Rating (Aβ42 cellular IC50)
[3] = 19 h, read-out: Activity Rating (Aβ42 cellular IC50), numeric value

Compound | IC50 [1] | further results
CNc1nc(Nc2ccc(-n3ncnc3C)c(F)c2)nc2c1COC2c1ccc(F)cc1 (stereo not shown) [Example 82A, N2-(3-fluoro-4-(5-methyl-1H-1,2,4-triazol-1-yl)phenyl)-7-(4-fluorophenyl)-N4-methyl-5,7-dihydrofuro[3,4-d]pyrimidine-2,4-diamine] |  | IC50 [2]: 0.0015 to 0.0099 µM
CNc1nc(Nc2ccc3nc[nH]c3c2)nc2c1CCC2c1ccccc1 (stereo not shown) [Example 253, N2-(1H-benzo[d]imidazol-6-yl)-N4-methyl-7-phenyl-6,7-dihydro-5H-cyclopenta[d]pyrimidine-2,4-diamine] |  | IC50 [3]: 5.9 µM
COc1cc(Nc2nc(N[C@H](C)C3CC3)c3c(n2)C(c2ccc(F)cc2)CC3)ccc1-n1cnc(Cl)c1 (mixture of isomers) [Example 49, N2-(4-(4-chloro-1H-imidazol-1-yl)-3-methoxyphenyl)-N4-((R)-1-cyclopropylethyl)-7-(4-fluorophenyl)-6,7-dihydro-5H-cyclopenta[d]pyrimidine-2,4-diamine, 2 TFA] |  | IC50 (class symbols, TFA, read-out: Activity Rating (Aβ42 cellular IC50)): 0.0015 to 0.0099 µM
CCNc1nc(Nc2ccc(-n3ncnc3C)c(F)c2)nc2c1COCC2c1ccc(F)c(F)c1 (stereo not shown) [Example 116A, 8-(3,4-difluorophenyl)-N4-ethyl-N2-(3-fluoro-4-(5-methyl-1H-1,2,4-triazol-1-yl)phenyl)-7,8-dihydro-5H-pyrano[4,3-d]pyrimidine-2,4-diamine] |  | IC50 [2]: 0.0015 to 0.0099 µM
COc1cc(Nc2nc3c(c(N4CC[C@@H](F)C4)n2)CCN(S(C)(=O)=O)C3c2ccc(F)cc2)ccc1-n1cnc(Cl)c1 (stereo partly shown) [Example 173] |  | IC50 [3]: 0.49 µM
COc1cc(Nc2nc3c(c(N4CCC(C(F)(F)F)C4)n2)CCC3c2ccc(F)cc2)ccc1-n1cnc(Cl)c1 (stereo not shown) [Example 41A, N-(4-(4-chloro-1H-imidazol-1-yl)-3-methoxyphenyl)-7-(4-fluorophenyl)-4-(3-(trifluoromethyl)pyrrolidin-1-yl)-6,7-dihydro-5H-cyclopenta[d]pyrimidin-2-amine] | 0.01 to 0.1 µM | 
CNc1nc(Nc2ccc(-n3cnc(C#N)c3)c(OC)c2)nc2c1CCC2c1ccccc1 (stereo not shown) [Example 204, 1-(2-methoxy-4-(4-(methylamino)-7-phenyl-6,7-dihydro-5H-cyclopenta[d]pyrimidin-2-ylamino)phenyl)-1H-imidazole-4-carbonitrile] |  | IC50 [3]: 0.019 µM
CCN(C)c1nc(Nc2ccc(-n3cnc(Cl)c3)c(OC)c2)nc2c1CCC2c1ccccc1 (stereo not shown) [Example 5, N^2-(4-(4-Chloro-1H-imidazol-1-yl)-3-methoxyphenyl)-N^4-ethyl-N^4-methyl-7-phenyl-6,7-dihydro-5H-cyclopenta[d]pyrimidine-2,4-diamine] | 0.0015 to 0.0099 µM | 
COc1cc(Nc2nc3c(c(N(C)C)n2)CCC3c2ccccc2)ccc1-n1cnc(Cl)c1 (single isomer, unassigned) [Example 4A, N^2-(4-(4-chloro-1H-imidazol-1-yl)-3-methoxyphenyl)-N^4,N^4-dimethyl-7-phenyl-6,7-dihydro-5H-cyclopenta[d]pyrimidine-2,4-diamine] |  | IC50 [2]: 0.0015 to 0.0099 µM
COc1cc(Nc2nc3c(c(N4CC(F)(F)C4)n2)CCC3c2ccc(F)cc2)ccc1-n1cnc(Cl)n1 (single isomer, unassigned) [Example 17B, N-(4-(3-chloro-1H-1,2,4-triazol-1-yl)-3-methoxyphenyl)-4-(3,3-difluoroazetidin-1-yl)-7-(4-fluorophenyl)-6,7-dihydro-5H-cyclopenta[d]pyrimidin-2-amine] | 0.01 to 0.1 µM | 
COc1cc(Nc2nc3c(c(N(C)C)n2)CCC3c2ccc(F)cc2)ccc1-n1cnc(Cl)c1 (racemic) [Example 46, N^2-(4-(4-Chloro-1H-imidazol-1-yl)-3-methoxyphenyl)-7-(4-fluorophenyl)-N^4,N^4-dimethyl-6,7-dihydro-5H-cyclopenta[d]pyrimidine-2,4-diamine] | 0.0015 to 0.0099 µM | 
CNc1nc(Nc2ccc(-n3cnc(Cl)c3)c(OC)c2)nc2c1CCC2c1ccc(F)cc1 (stereo not shown) [Example 11, N^2-(4-(4-Chloro-1H-imidazol-1-yl)-3-methoxyphenyl)-7-(4-fluorophenyl)-N^4-methyl-6,7-dihydro-5H-cyclopenta[d]pyrimidine-2,4-diamine] | 0.0015 to 0.0099 µM | 
CCNc1nc(Nc2ccc(-n3cnc(Cl)c3)c(OC)c2)nc2c1CCC2(C)c1ccccc1 (stereo not shown) [Example 110A, N2-(4-(4-chloro-1H-imidazol-1-yl)-3-methoxyphenyl)-N4-ethyl-7-methyl-7-phenyl-6,7-dihydro-5H-cyclopenta[d]pyrimidine-2,4-diamine] |  | IC50 [2]: 0.0015 to 0.0099 µM
COc1cc(Nc2nc3c(c(N4CC(F)(F)C4)n2)CCC3c2ccc(OC(F)(F)F)cc2)ccc1-n1cnc(Cl)c1 (single isomer, unassigned) [Example 99B, N-(4-(4-chloro-1H-imidazol-1-yl)-3-methoxyphenyl)-4-(3,3-difluoroazetidin-1-yl)-7-(4-(trifluoromethoxy)phenyl)-6,7-dihydro-5H-cyclopenta[d]pyrimidin-2-amine] |  | IC50 [3]: 0.19 µM
CNc1nc(Nc2ccc(C#N)nc2)nc2c1CCC2c1ccccc1 (stereo not shown) [Example 230, 5-(4-(methylamino)-7-phenyl-6,7-dihydro-5H-cyclopenta[d]pyrimidin-2-ylamino)picolinonitrile] |  | IC50 [3]: 0.042 µM

Second part, led by results:

IC50 [1] | Compound | further results
> 1 µM | CNc1nc(Nc2ccc(NC3(C#N)CC3)c(OC)c2)nc2c1CCC2c1ccccc1 (stereo not shown) [Example 248, 1-(2-methoxy-4-(4-(methylamino)-7-phenyl-6,7-dihydro-5H-cyclopenta[d]pyrimidin-2-ylamino)phenylamino)cyclopropanecarbonitrile] | 
0.01 to 0.1 µM | COc1cc(Nc2nc3c(c(N4CC[C@@H](F)C4)n2)CCN(S(C)(=O)=O)C3c2ccc(F)cc2)ccc1-n1cnc(Cl)c1 (stereo partly shown) [Example 174] | 
0.01 to 0.1 µM | COc1cc(Nc2nc3c(c(N4CC(=O)C4)n2)CCC3c2ccccc2)ccc1-n1cnc(Cl)c1 (stereo not shown) [Example 185, 1-(2-(4-(4-chloro-1H-imidazol-1-yl)-3-methoxyphenylamino)-7-phenyl-6,7-dihydro-5H-cyclopenta[d]pyrimidin-4-yl)azetidin-3-one] | 
0.0015 to 0.0099 µM | CNc1nc(Nc2ccc(-n3cnc(Cl)c3)c(OC)c2)nc2c1CN(C)CC2c1ccccc1 (stereo not shown) [Example 148A, N2-(4-(4-chloro-1H-imidazol-1-yl)-3-methoxyphenyl)-N4,6-dimethyl-8-phenyl-5,6,7,8-tetrahydropyrido[4,3-d]pyrimidine-2,4-diamine] | 
0.0015 to 0.0099 µM | CNc1nc(Nc2ccc(-n3cnc(Cl)c3)c(OC)c2)nc2c1COCC2c1ccc(F)c(F)c1 (racemic) [Example 115, N2-(4-(4-chloro-1H-imidazol-1-yl)-3-methoxyphenyl)-8-(3,4-difluorophenyl)-N4-methyl-7,8-dihydro-5H-pyrano[4,3-d]pyrimidine-2,4-diamine, TFA] | 
0.01 to 0.1 µM | COc1cc(Nc2nc(N(C)C)c3c(n2)C(O)(c2ccccc2)CC3)ccc1-n1cnc(Cl)c1 (stereo not shown) [Example 179, 2-(4-(4-chloro-1H-imidazol-1-yl)-3-methoxyphenylamino)-4-(dimethylamino)-7-phenyl-6,7-dihydro-5H-cyclopenta[d]pyrimidin-7-ol] | 
0.01 to 0.1 µM | CNc1nc(Nc2ccc(-n3cnc(Cl)c3)c(OC)c2)nc2c1/C(=N/OC)CC2c1ccccc1 (stereo not shown) [Example 201B, (E)-2-(4-(4-chloro-1H-imidazol-1-yl)-3-methoxyphenylamino)-4-(methylamino)-7-phenyl-6,7-dihydro-5H-cyclopenta[d]pyrimidin-5-one O-methyl oxime] | 
